Here are results for 28 molecules from ChEMBL document CHEMBL4483862, “Open-source discovery of chemical leads for next-generation chemoprotective antimalarials” (2018).

The assay concerns Plasmodium berghei. In words: Luciferase/luciferin-expressing antifolate-resistant parasites were used to infect a culture of HepG2 cells that were pre-incubated with compounds. Infected hepatocytes emit light due to the luciferase reaction. Assay results are presented as the percent inhibition of light emission compared to control. […]. The format is functional. Particulars: sporozoite; for IC90: read-out: LUCIFERASE INFECTION ASSAY - IC90.

[1] abbreviates: read-out: LUCIFERASE INFECTION ASSAY - IC50.

Regarding `O=C(Nc1ccc(Cl)cc1)Nc1cc(Cl)c(-n2cccc2)cc1Cl`, the IC90 (in general, the concentration needed for an effect of 90%) was greater than 8.67 µM. The IC50 (usually the point on the concentration scale where inhibition reaches its midpoint) (FFLUC_HILL_SLOPE 11.8, FFLUC_R_SQUARED 0.707, PBLUC_HILL_SLOPE 1.68, PBLUC_R_SQUARED 0.178, read-out: LUCIFERASE INFECTION ASSAY - IC50) came to 6.82 µM.

Consider `C/C(=N\NC(=O)c1ccc(Cl)cc1)c1ccccc1O`, for which the IC90 is 4.32 µM. In addition, the IC50 (HEPG2TOX_HILL_SLOPE 1.4, HEPG2TOX_R_SQUARED 0.87, PBLUC_HILL_SLOPE 14.3, PBLUC_R_SQUARED 0.668, read-out: LUCIFERASE INFECTION ASSAY - IC50) is 3.7 µM.

Regarding `COCCCNC(=S)N/N=C/c1ccc(Cl)c(Cl)c1`, the IC90 is greater than 10.3 µM. The concentration for half-maximal inhibition (IC50) under setting [1] was greater than 10.3 µM.

Regarding `NC(=O)c1ccsc1NC(=O)CN1CCC(c2c[nH]c3ccccc23)CC1`, the IC90 is greater than 10 µM. Besides, where the note is “FFLUC_HILL_SLOPE 7.73, FFLUC_R_SQUARED 0.279, read-out: LUCIFERASE INFECTION ASSAY - IC50”, the IC50 is greater than 10 µM.

Consider `CN(C)c1cccc(-c2cnc3sc(NCc4ccncc4)nn23)c1`, for which the IC90 is greater than 9.42 µM. The IC50 under setting [1] is greater than 9.42 µM.

With `N#C/C(=C\c1ccc(O)cc1)c1nc(C(c2ccccc2)c2ccccc2)no1`, the IC90 is greater than 10 µM. The IC50 (FFLUC_HILL_SLOPE 12.8, FFLUC_R_SQUARED 0.5, read-out: LUCIFERASE INFECTION ASSAY - IC50) is greater than 10 µM.

`O=C(NNC(=O)c1cc2cc(Cl)ccc2[nH]1)c1ccc(S(=O)(=O)N2CCCC2)cc1`: the IC90 is 9.83 µM. Besides, the IC50 (HEPG2TOX_HILL_SLOPE 3.29, HEPG2TOX_R_SQUARED 0.977, PBLUC_HILL_SLOPE 10.3, 16.0, PBLUC_R_SQUARED 0.127, 0.622, read-out: LUCIFERASE INFECTION ASSAY - IC50) turned out to be 8.54 µM.

For the molecule `O=C(c1ccc(S(=O)(=O)NCc2ccco2)cc1)N1CCc2sccc2C1c1cccs1` (stereo unspecified), the IC90 is greater than 10 µM. Further, the IC50 under setting [1] is greater than 10 µM.

Consider `CN(NS(=O)(=O)c1ccc(Cl)cc1)c1cnn(C)c(=O)c1Cl`, for which the IC90 was greater than 9.09 µM. For the same molecule, the IC50 under setting [1] was greater than 9.09 µM.

Turning to `COc1ccc2nc(C)cc(NC(C)CCc3ccccc3)c2c1` (stereo unspecified), the IC90 is greater than 10 µM. The IC50 (PBLUC_HILL_SLOPE 1.9, PBLUC_R_SQUARED 0.397, read-out: LUCIFERASE INFECTION ASSAY - IC50) turned out to be 6.04 µM.

Take `COc1ccc(CCN2C(=O)C=CC2=O)cc1OC`: the IC90 was determined as 5.29 µM. Further, the IC50 (FFLUC_HILL_SLOPE 0.51, FFLUC_R_SQUARED 0.0256, HEPG2TOX_HILL_SLOPE 14.8, HEPG2TOX_R_SQUARED 0.93, PBLUC_HILL_SLOPE 12.3, PBLUC_R_SQUARED 0.48, read-out: LUCIFERASE INFECTION ASSAY - IC50) is 4.42 µM.

As to `O=C(CCc1cccnc1)Nc1ccc(OC(F)(F)F)cc1`, the IC90 was greater than 10 µM. Further, the IC50 under setting [1] was greater than 10 µM.

As for `CC(C)c1ccc(S(=O)(=O)c2ccc(NNC(=O)c3ccccc3OCc3ccc(Cl)cc3)cc2)cc1`, the IC90 was greater than 10 µM. For the same molecule, for the setting “FFLUC_HILL_SLOPE 4.22, FFLUC_R_SQUARED 0.402, PBLUC_HILL_SLOPE 10.9, PBLUC_R_SQUARED 0.175, read-out: LUCIFERASE INFECTION ASSAY - IC50”, the 50% inhibitory concentration (IC50) turned out to be 8.49 µM.

Regarding `COc1ccc(-c2cc3c(n(C)c2=O)CCN(C(=O)C(C)n2nc(C)cc2C)C3)c2ccc(C)nc12` (stereo unspecified), the IC90 is greater than 6.8 µM. In addition, the IC50 under setting [1] was greater than 6.8 µM.

For `O=C(Nc1ccc(F)cc1)C(Sc1nnc(-c2cccs2)[nH]1)c1ccccc1` (stereo unspecified), the IC90 is greater than 10 µM. Further, under “PBLUC_HILL_SLOPE 4.17, PBLUC_R_SQUARED 0.509, read-out: LUCIFERASE INFECTION ASSAY - IC50”, the IC50 was 6.11 µM.

On to `CC(=O)N(c1nc(/C=C/C(=O)c2ccc(F)c(Br)c2)cs1)c1ccc(F)cc1F`, for which the IC90 is greater than 10 µM. The IC50 under setting [1] was greater than 10 µM.

Take `O=C(c1ccc(NS(=O)(=O)c2cccs2)cc1)N1CCC(c2c[nH]c3ccccc23)CC1`: the IC90 was greater than 10 µM. Further, under setting [1], the half-inhibitory concentration (IC50) is greater than 10 µM.

Regarding `Oc1cc(C(F)(F)F)nc2ccc(F)cc12`, the IC90 was greater than 14.3 µM. Besides, under “PBLUC_HILL_SLOPE 1.66, PBLUC_R_SQUARED 0.446, read-out: LUCIFERASE INFECTION ASSAY - IC50”, the IC50 worked out at 6.54 µM.

On to `O=C(Nc1cc(C(F)(F)F)ccc1N1CCOCC1)c1ccc(SCc2cscn2)cc1`, for which the IC90 is greater than 10 µM. For the same molecule, where the note is “PBLUC_HILL_SLOPE 11.6, PBLUC_R_SQUARED 0.493, read-out: LUCIFERASE INFECTION ASSAY - IC50”, the IC50 is 8.97 µM.

As to `O=C(Nc1cc(Cl)cc(Cl)c1)c1cc(Br)ccc1O`, the IC90 came out at 1.35 µM. Besides, under “HEPG2TOX_HILL_SLOPE 1.83, HEPG2TOX_R_SQUARED 0.974, PBLUC_HILL_SLOPE 1.75, PBLUC_R_SQUARED 0.827, read-out: LUCIFERASE INFECTION ASSAY - IC50”, the IC50 was 0.385 µM.

For the molecule `Cc1ccc(-c2cnc3ccc(NCc4cccs4)nn23)cc1`, the IC90 is greater than 10.3 µM. For the same molecule, the IC50 (PBLUC_HILL_SLOPE 1.88, PBLUC_R_SQUARED 0.642, read-out: LUCIFERASE INFECTION ASSAY - IC50) is 4.8 µM.

Consider `Cn1c(=O)c2cc(NC(=O)CC(C)(C)C)ccc2n1Cc1ccccc1`, for which the 90% effect concentration (IC90) is greater than 9.39 µM. Also, the IC50 under setting [1] was greater than 9.39 µM.

For `O=C1c2ccccc2O[C@@H](c2ccc(Cl)cc2)[C@@H]1O`, the 90% effect concentration (IC90) was greater than 12 µM. The half-inhibitory concentration (IC50) (PBLUC_HILL_SLOPE 64.7, PBLUC_R_SQUARED 0.241, read-out: LUCIFERASE INFECTION ASSAY - IC50) is 12 µM.

`CC(C)(C)c1ccc(C2Nc3ccccc3C(=O)N2C2CC2)cc1` (stereo unspecified): the IC90 turned out to be 9.91 µM. Besides, the IC50 (PBLUC_HILL_SLOPE 18.7, PBLUC_R_SQUARED 0.174, read-out: LUCIFERASE INFECTION ASSAY - IC50) worked out at 8.81 µM.

For `COC(=O)/C(O)=C/C(=O)c1c(C)[nH]c(C(=O)OC)c1C`, the IC90 is greater than 10 µM. Besides, under setting [1], the IC50 is greater than 10 µM.

In the case of `CN(CC(=O)Nc1nc(-c2c[nH]c3ccccc23)cs1)C1CCCCC1`, the 90% effect concentration (IC90) is greater than 10 µM. For the same molecule, the half-inhibitory concentration (IC50) under setting [1] was greater than 10 µM.

Regarding `COc1cccc(NC(=O)c2cc(C)n(Cc3cccs3)c2C)c1`, the concentration for an effect of 90% (IC90) is greater than 9.69 µM. The IC50 (PBLUC_HILL_SLOPE 0.906, PBLUC_R_SQUARED 0.33, read-out: LUCIFERASE INFECTION ASSAY - IC50) worked out at 6.44 µM.

For `COc1ccc(OCCSCc2cc(=O)n3c4c(sc3n2)CCCC4)cc1`, the 90% effect concentration (IC90) is greater than 10 µM. Also, under setting [1], the half-inhibitory concentration (IC50) was greater than 10 µM.
